# Measurements: publication doi:10.1101/2025.08.17.670703v1 (biorxiv, 2025)
# Tests used:
# [1] = target: T1, HEV-PLpro (HEV papain-like cysteine protease) (Hepatitis E virus (strain Pakistan), UniProt P33424); assay: fluorogenic protease assay; format: biochemical
# T1 sequence (P33424 432-592): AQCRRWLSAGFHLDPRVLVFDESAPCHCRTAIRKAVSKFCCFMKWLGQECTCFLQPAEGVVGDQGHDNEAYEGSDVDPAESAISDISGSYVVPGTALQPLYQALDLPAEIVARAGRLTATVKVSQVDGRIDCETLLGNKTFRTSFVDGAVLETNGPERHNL
# [2] = target: T1, HEV-PLpro (HEV papain-like cysteine protease); assay: fluorogenic protease assay, secondary plot of Km' vs [I]; format: biochemical
smiles,measurement,setting,value
"NC(=O)c1ncn([C@@H]2O[C@H](CO)[C@@H](O)[C@H]2O)n1 [RBV, ribavirin]",IC50,[1],78.3 µM
same,Ki,[2],47.6 µM
